Results taken from US20230167088A1, “1-PYRAZINYLPYRAZOLYL-3-OXYALKYL ACIDS AND THEIR DERIVATIVES, AND THEIR USE FOR CONTROL OF UNDESIRED PLANT GROWTH” (BAYER AKTIENGESELLSCHAFT, priority 2020, published 2023).

Key:
AVEFA = assay: Herbicidal post-emergence action 1a (greenhouse pots, visual rating); type: in vivo, Avena fatua; settings: rated visually about 3 weeks after treatment, 100% = plants have died, 0% = like control plants
Procedure, shortened: (§1)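 Weeds and crops sown in sandy loam in greenhouse pots were sprayed post-emergence at the one-leaf stage (2–3 weeks after sowing) with WP or EC formulations plus 0.5% additive at 600 l/ha water, 320 and/or 80 g/ha. About 3 weeks later damage was rated visually against untreated controls (0% = no effect, 100% = dead).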

SETVI [1] = assay: as above; type: in vivo, Setaria viridis; settings: rated visually about 3 weeks after treatment, 100% = plants have died, 0% = like control plants
Procedure, shortened: as §1

harmful plants = assay: Herbicidal post-emergence action 1a, summary across species; type: in vivo; settings: Tables A1 to A15 (320 g/ha and/or 80 g/ha)
Protocol: a) Seeds of monocotyledonous and dicotyledonous weeds and crop plants are placed in sandy loam in plastic or organic plant pots, covered with soil and cultivated in a greenhouse under controlled growth conditions. 2 to 3 weeks after sowing, the test plants are treated at the one-leaf stage. The compounds of the invention, formulated in the form of wettable powders (WP) or as emulsion concentrates (EC), are then sprayed onto the green parts of the plants as aqueous suspension or emulsion with addition of 0.5% additive at a water application rate of 600 1/ha (converted). After the test plants have been kept in the greenhouse under optimum growth conditions for about 3 weeks, the activity of the preparations is rated visually in comparison to untreated controls. For example, 100% activity=the plants have died, 0% activity=like control plants.
Tables A1 to A15 below show the effects of selected compounds of the general formula (I) according to Tables 1 and 2 on various harmful plants and an application rate corresponding to 320 g/ha and/or 80 g/ha, which were obtained by the experimental procedure mentioned above.
For example, compound nos. I-05, I-07, I-08, I-10, I-12, I-16, I-17, I-22, I-36, I-37, I-39 and I-40 in the post-emergence method have very good action (80% to 100% herbicidal activity) against harmful plants such as Alopecurus myosuroides, Amaranthus retroflexus, Avena fatua, Lolium rigidum, Polygonum convolvulus, Setaria viridis, Veronica persica and Viola tricolor at an application rate of 0.32 kg of active substance per hectare.

SETVI [2] = assay: Herbicidal pre-emergence action 2a (greenhouse pots, visual scoring); type: in vivo, Setaria viridis; settings: dosage 320 g/ha, visual scoring after about 3 weeks vs untreated controls
Procedure, shortened: (§2)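 Pre-emergence greenhouse pot test: WP or EC formulations sprayed onto covering soil over sown seeds at 600 l/ha water with 0.5% additive, at rates corresponding to 320 g/ha and/or 80 g/ha. Visual % activity versus untreated controls after about 3 weeks (100% = plants dead).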

AMARE = assay: Herbicidal post-emergence action 1a (greenhouse pots, visual rating); type: in vivo, Amaranthus retroflexus; settings: visual rating about 3 weeks after treatment
Procedure, shortened: as §1

POLCO = assay: Herbicidal pre-emergence action 2a (greenhouse pots, visual scoring); type: in vivo, Polygonum convolvulus; settings: dosage 320 g/ha, visual scoring after about 3 weeks vs untreated controls
Procedure, shortened: as §2

VIOTR = assay: as above; type: in vivo, Viola tricolor; settings: dosage 320 g/ha, visual scoring after about 3 weeks vs untreated controls
Procedure, shortened: as §2

LOLRI [3] = assay: as above; type: in vivo, Lolium rigidum; settings: dosage 320 g/ha, visual scoring after about 3 weeks vs untreated controls
Procedure, shortened: as §2

LOLRI [4] = assay: Herbicidal post-emergence action 1a (greenhouse pots, visual rating); type: in vivo, Lolium rigidum; settings: rated visually about 3 weeks after treatment, 100% = plants have died, 0% = like control plants
Procedure, shortened: as §1

DIGSA = assay: as above; type: in vivo, Digitaria sanguinalis; settings: rated visually about 3 weeks after treatment, 100% = plants have died, 0% = like control plants
Procedure, shortened: as §1

ECHCG = assay: Herbicidal post-emergence action 1b (twin sowing, 1280 g/ha); type: in vivo, Echinochloa crus-galli; settings: dosage 1280 g/ha, visual rating about 3 weeks after treatment
Procedure, shortened: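 Post-emergence foliar spray on one-leaf weeds grown two species per pot in sandy loam; ~3 weeks later, visual rating from 0% (as control) to 100% (plants died).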

Row | SMILES | Post-emergence action against AVEFA in % (AVEFA; Dosage 80 g/ha) [%] | Post-emergence action against AVEFA in % (AVEFA; Dosage 320 g/ha) [%] | Post-emergence action against SETVI in % (SETVI [1]; Dosage 80 g/ha) [%] | Post-emergence action against SETVI in % (SETVI [1]; Dosage 320 g/ha) [%] | herbicidal efficacy against harmful plants in the case of post-emergence treatment (in words) (harmful plants) | Pre-emergence action against SETVI in % (SETVI [2]) [%] | Post-emergence action against AMARE in % (AMARE; dosage 80 g/ha) [%] | Post-emergence action against AMARE in % (AMARE; dosage 320 g/ha) [%] | Pre-emergence action against POLCO in % (POLCO) [%] | Pre-emergence action against VIOTR in % (VIOTR) [%] | Pre-emergence action against LOLRI in % (LOLRI [3]) [%] | Post-emergence action against LOLRI in % (LOLRI [4]; Dosage 80 g/ha) [%] | Post-emergence action against LOLRI in % (LOLRI [4]; Dosage 320 g/ha) [%] | Post-emergence action against DIGSA in % (DIGSA; Dosage 320 g/ha) [%] | Post-emergence action at 1280 g/ha against ECHCG in % (ECHCG) [%] | Post-emergence action against DIGSA in % (DIGSA; Dosage 80 g/ha) [%]
1 | COC(=O)C(C)Oc1nn(-c2cnccn2)c(-c2ccc(F)c(F)c2)c1C#N (racemic) [Example I-22] | 100 | 100 | 80 | 80 | good herbicidal efficacy | 100 | 90 | 90 | 80 | 90 | 100 | 80 | 100 | 80 | – | –
2 | COC(=O)[C@@H](C)Oc1nn(-c2cnccn2)c(-c2ccc(F)c(F)c2)c1Br [Example I-45] | – | 80 | – | 80 | good herbicidal efficacy | 100 | – | 90 | 100 | 100 | 90 | 90 | 90 | – | 100 | –
3 | COC(=O)COc1nn(-c2cnccn2)c(-c2ccc(F)c(F)c2)c1Br [Example I-15] | 90 | 90 | 90 | 90 | good herbicidal efficacy | 100 | 80 | 80 | – | 100 | 100 | 90 | 90 | 90 | – | –
4 | C[C@@H](Oc1nn(-c2cnccn2)c(-c2cccc(F)c2)c1Br)C(=O)O [Example I-48] | 80 | – | 80 | – | – | 100 | – | – | 100 | 100 | 100 | – | – | – | 100 | –
5 | COC(=O)[C@@H](C)Oc1nn(-c2cnccn2)c(-c2ccc(F)c(F)c2)c1C#N [Example I-46] | 80 | 80 | – | – | – | 100 | 80 | 80 | 100 | 100 | 100 | 90 | 90 | – | 100 | –
6 | COC(=O)COc1nn(-c2cnccn2)c(-c2ccc(F)nc2)c1Br [Example I-11] | – | – | – | 90 | good herbicidal efficacy | 100 | 90 | 90 | 90 | 100 | 100 | – | – | – | 90 | –
7 | CCOC(=O)COc1nn(-c2cnccn2)c(-c2ccc(F)nc2)c1Br [Example I-52, ethyl {[4-bromo-5-(6-fluoropyridin-3-yl)-1-(pyrazin-2-yl)-1H-pyrazol-3-yl]oxy}acetate] | – | – | – | – | – | 90 | 90 | 80 | 80 | 90 | 100 | – | – | – | – | –
8 | CCOC(=O)COc1nn(-c2cnccn2)c(-c2ccccc2)c1Br [Example I-01] | – | – | – | – | good herbicidal efficacy | – | 80 | 90 | 80 | – | 80 | – | 90 | 80 | – | –
9 | COC(=O)C(C)Oc1nn(-c2cnccn2)c(-c2ccnc(F)c2)c1Cl (racemic) [Example I-05] | 90 | 100 | – | 80 | good herbicidal efficacy | 90 | – | 80 | – | 100 | 100 | – | 90 | 90 | – | 80
10 | COC(=O)[C@@H](C)Oc1nn(-c2cnccn2)c(-c2cncc(F)c2)c1C#N [Example I-40] | – | 80 | – | 90 | good herbicidal efficacy | 100 | 80 | 90 | 80 | 90 | 90 | – | 80 | 80 | – | –
11 | COC(=O)C(C)Oc1nn(-c2cnccn2)c(-c2ccnc(F)c2)c1Br (racemic) [Example I-10] | 80 | 90 | – | 80 | good herbicidal efficacy | 100 | – | 80 | – | 80 | 100 | – | 90 | 80 | – | –
